In brackets after ≈: the same amount, converted by molar mass.

For this series the following is noted: buffer; pH 7.4; 200.0 µM.
In general, kinetic solubility refers to the concentration staying in solution when a stock, usually in DMSO, is diluted into the medium. On to `CC(C)N(CC(N)=O)c1ncnc2sc(-c3ccccc3)cc12`, for which the kinetic solubility was determined as 10.4 µg/mL (≈ 31.9 µM).
Consider `O=C(c1cccs1)N1CCN(S(=O)(=O)c2cccs2)CC1`, for which the solubility (kinetic) was determined as 47.3 µg/mL (≈ 138 µM).
Then `CC1=C(C#N)C2(O)C(=O)c3ccccc3C2(O)N1` (stereo not given), with above 36.3 µg/mL.
In turn, `CN1C(=O)OC(C)(C)C1=O` had a kinetic solubility below 0.3 µg/mL.
`O=C1ON=C(c2ccccc2)/C1=C/c1ccc(O)cc1` came in with a kinetic solubility above 39.8 µg/mL.
Consider `O=C(CSc1nccc(=O)[nH]1)NCc1ccc2c(c1)OCO2`, for which the solubility (kinetic) is above 47.9 µg/mL.
`CCC(=O)Nc1cc(-c2cc3ccccc3oc2=O)ccc1OC` came in with a kinetic solubility of 11 µg/mL (≈ 34 µM).
Then `Cc1nc2ccccc2cc1C(=O)NCc1ccc(F)cc1`, with 20.6 µg/mL (≈ 70 µM).
As to `COc1ccc([N+](=O)[O-])c(OC)c1C(=O)Nc1ccc(F)cc1F`, the kinetic solubility came to 33.9 µg/mL (≈ 100 µM).
In turn, `O=C(COC(=O)c1ccc(Cl)cc1)NCC1CCCCC1` came in with a solubility (kinetic) of 5.4 µg/mL (≈ 17.4 µM).
Then `Cc1cccc(C)c1NC(=O)CN(C)C(=O)CCC(=O)N1CCOCC1`, with above 54.2 µg/mL; and `Cc1ccc2ncnc(Nc3cccc([N+](=O)[O-])c3)c2c1`, with 5.9 µg/mL (≈ 21 µM).
`C=C(C)c1cccc(C(C)(C)NC(=O)NCc2ccncc2)c1` had a solubility (kinetic) above 46.4 µg/mL.
Then `COc1ccccc1-c1noc(CCCC(=O)N2CCOCC2)n1`, with above 49.7 µg/mL.
For the compound `Cc1cccc(Cc2c(C)[nH]c(=O)c(C#N)c2C)c1`, the kinetic solubility is 5.5 µg/mL (≈ 21.8 µM).
The compound `CC(=O)Oc1ccc(C(=O)Nc2cc(C)on2)cc1` registered a kinetic solubility of 38.1 µg/mL (≈ 146 µM).
In the case of `N#C/C(=C\C=C\c1ccccc1)C(=O)NCc1ccco1`, the solubility (kinetic) came out at 6.3 µg/mL (≈ 22.6 µM).
In turn, `Cc1ccc(C(=O)Nc2ccc3c(c2)OCO3)cc1Cl` displayed a solubility (kinetic) below 0.6 µg/mL.
Then `O=C(COC(=O)c1c[nH]c2ccccc12)NC1CCCC1`, with above 42.9 µg/mL.
Then `O=S(=O)(CCSc1ccc(C(F)(F)F)cn1)c1ccc(Cl)cc1`, with below 0.8 µg/mL; and `CSc1ccc(Cl)c(C(=O)Nc2nccs2)c1`, with 2.8 µg/mL (≈ 9.83 µM).
For `CC1(C)C(c2ccccc2)=NC(c2ccc(Br)cc2)N1O` (stereo not given), the kinetic solubility is 3.7 µg/mL (≈ 10.7 µM).
For `CC(C)(C)NS(=O)(=O)c1ccc(NC(=O)C2CCCCC2)cc1`, the kinetic solubility turned out to be 11.5 µg/mL (≈ 34 µM).
`Cc1ccsc1C(=O)Nc1nccs1` yielded a solubility (kinetic) above 33.6 µg/mL.
`CCN(CC)Cc1c(O)ccc2c(=O)c(-c3ccccc3OC)coc12`: the kinetic solubility was above 53 µg/mL.
Turning to `O=C(CSc1cccs1)Nc1ccc(Cl)cc1`, the solubility (kinetic) is 36.5 µg/mL (≈ 129 µM).
Then `CCCCCc1ccc(S(=O)(=O)Nc2cc(C)ccn2)cc1`, with below 0.3 µg/mL; and `O=c1c2ccccc2ncn1CCOc1ccccc1[N+](=O)[O-]`, with 3.2 µg/mL (≈ 10.3 µM); and `CC(C)(C)N/C=C(\C#N)S(=O)(=O)c1ccc(Br)cc1`, with 7.7 µg/mL (≈ 22.4 µM).
Compound `COc1cc(/C=C2\SC(N)=NC2=O)ccc1O` displayed a solubility (kinetic) of 34.5 µg/mL (≈ 138 µM).
Then `O=c1c2ccccc2cnn1Cc1n[nH]c(=S)n1-c1ccccc1F`, with above 53 µg/mL; and `CCN=C1SC(C(=O)Nc2cccc(Cl)c2)CC(=O)N1CC` (stereo not given), with 2.6 µg/mL (≈ 7.65 µM); and `CCc1ccc(C2CC(=O)Nc3c2c(=O)nc2c(C)cccn32)cc1` (stereo not given), with above 50 µg/mL.
Under `COc1ccc(N2CCN(CC(=O)NCc3ccccc3)CC2)cc1` stands above 50.9 µg/mL; under `COc1ccc2nc(N(CCN(C)C)C(=O)c3ccc4ccccc4c3)sc2c1.Cl`, 24.9 µg/mL.
For `Cc1nnc(NC(=O)C(C)Sc2nnc(-c3ccco3)n2C)s1` (stereo not given), the kinetic solubility was above 52.6 µg/mL.
`O=C(Nc1ccc(F)c(Cl)c1)N1CCCCCC1`: the solubility (kinetic) is 5.8 µg/mL (≈ 21.4 µM).
As for `Cc1cc(C(=O)Nc2ccc(Cl)cc2)on1`, the solubility (kinetic) is 3.8 µg/mL (≈ 16.1 µM).
Under `COc1ccc(OCCNC(=O)c2ccccc2Cl)cc1` stands above 45.9 µg/mL; under `Cc1ccc(C)c(SCC(=O)Nc2cccc(S(=O)(=O)N3CCOCC3)c2)c1`, 21.4 µg/mL (≈ 50.9 µM).
As for `N=c1oc2ccccc2cc1C(=O)Nc1ccccc1`, the solubility (kinetic) amounted to 0.6 µg/mL (≈ 2.27 µM).
Then `Cc1cccc(CC2CC(=O)N(CCc3ccc4c(c3)OCO4)C2=O)c1` (stereo not given), with 11.5 µg/mL (≈ 32.7 µM); and `Cc1cc(=O)[nH]c(-c2ccc(Cl)cc2)n1`, with above 33.1 µg/mL.
Under `CCOc1ccccc1CN1C2CCC1CC(c1ccc(C)cc1)C2` (stereo not given) stands 35 µg/mL (≈ 104 µM); under `O=C(NCC1CCCO1)c1ccc([N+](=O)[O-])o1` (stereo not given), above 36 µg/mL; under `CCOC(=O)C1CCN(S(=O)(=O)c2c[nH]c(=O)[nH]c2=O)CC1`, above 49.7 µg/mL.
Compound `CCc1ccc(N(CC)C(=O)c2cn(C)c(=O)c3ccccc23)cc1` showed a kinetic solubility above 50.2 µg/mL.
Under `COCCCNCC(O)C(F)(F)F` (stereo not given) stands 24.4 µg/mL (≈ 121 µM); under `COc1ccc(CNc2cc(C)ccn2)cc1`, 17.4 µg/mL (≈ 76.2 µM).
In turn, `O=C(Cc1ccc(Br)cc1)OCC(=O)N1CCCCCC1` yielded a kinetic solubility above 53.1 µg/mL.
Then `CCC(C)n1c(O)c(C=NCc2cccnc2)c(=O)[nH]c1=S` (stereo not given), with 44.8 µg/mL (≈ 141 µM); and `O=C1NC2(CCCCCC2)C(=O)N1Cc1ccccc1F`, with 26 µg/mL (≈ 89.6 µM); and `COc1ccc(-c2cccc(C(=O)N3CCOCC3)c2)cc1`, with 40 µg/mL (≈ 135 µM).
`CC(CCc1ccccc1)NC(=O)CNc1cccc([N+](=O)[O-])c1` (stereo not given) registered a kinetic solubility above 49.1 µg/mL.
Under `CN(C)CCNC(=S)Nc1ccc(F)c(F)c1F` stands above 41.6 µg/mL; under `Cc1ccc(NC(=O)Nc2ccc3c(c2)CCC3)cc1`, below 0.3 µg/mL; under `O=C1C=CC(=O)N1`, 9 µg/mL (≈ 92.7 µM).
`Cc1ccc(OCCn2cnc3c2c(=O)n(C)c(=O)n3C)cc1`: the kinetic solubility turned out to be 6.3 µg/mL (≈ 20 µM).
Under `CNC(=O)C1=C(C)Nc2nc3ccccc3n2C1c1ccc(F)cc1` (stereo not given) stands 48.9 µg/mL (≈ 145 µM).
Then `CCN1CCC(O)(C#Cc2ccccc2)CC1`, with 33.5 µg/mL (≈ 146 µM); and `COc1ccc(N2CCN(c3cc(C)c4ccc(C)cc4n3)CC2)cc1`, with 1.1 µg/mL (≈ 3.17 µM); and `CCOC(=O)c1sc(S(C)=O)c2c1CCc1conc1-2` (stereo not given), with above 46.7 µg/mL.
As for `CC(C)S(=O)(=O)c1csc(C(=O)Nc2ccc(F)cc2)c1N`, the kinetic solubility is 13.6 µg/mL (≈ 39.7 µM).
As for `Cc1cc(C)cc(N2C(=O)CN(Cc3ccccc3)C2=S)c1`, the solubility (kinetic) came out at 4.1 µg/mL (≈ 13.2 µM).
`COc1ccc2c(c1)CCC(C)N2C(=O)C(=O)c1c[nH]c2ccccc12` (stereo not given) had a solubility (kinetic) of 0.6 µg/mL (≈ 1.72 µM).
`Cc1nc2ccc([N+](=O)[O-])cc2c(=O)n1Cc1cccc(F)c1` displayed a kinetic solubility of 9.1 µg/mL (≈ 29 µM).
Then `COc1ccc2nc(SC)cc(C)c2c1`, with 3.7 µg/mL (≈ 16.9 µM); and `Cc1ccc(NC(=O)N2CCc3ccccc3C2)c(C)c1`, with 5.4 µg/mL (≈ 19.3 µM).
Then `COc1cc2ccccc2cc1C(=O)N1CCOCC1`, with above 40.7 µg/mL; and `O=C(NC1CCCCC1)c1ccccc1C(F)(F)F`, with 38.9 µg/mL (≈ 143 µM).
For the compound `CC(C)CCOc1ccc(C2(C)NC(=O)NC2=O)cc1` (stereo not given), the kinetic solubility worked out at 38.5 µg/mL (≈ 139 µM).
In turn, `Cl.O=S(=O)(N1CCCCCC1)N1CCNCC1` gave a kinetic solubility above 42.6 µg/mL.
Compound `Cn1cccc1C(=O)NC(=O)COC(=O)c1ccc(S(C)(=O)=O)cc1` displayed a solubility (kinetic) of 8.7 µg/mL (≈ 23.9 µM).
Under `Br.CCn1c2c(c(=N)c3c1CCC3)CCCC2` stands above 44.6 µg/mL; under `CCOc1ccc(N2CC(C(=O)Nc3ccncc3)CC2=O)cc1` (stereo not given), above 48.8 µg/mL.
Compound `COc1ccc(NC(=S)NCCN2CCC(C)CC2)cc1` gave a kinetic solubility above 46.1 µg/mL.
`CCN(C(=O)CSc1nc2ccccc2[nH]1)C1CCS(=O)(=O)C1` (stereo not given) showed a solubility (kinetic) above 53 µg/mL.
With `N#CC(C#N)=Cc1c[nH]c(=O)c(C#N)c1Nc1ccccc1`, the solubility (kinetic) was above 43.1 µg/mL.
The compound `Cc1c(C(=O)O)c(C(=O)O)nc2ccc(N3CCOCC3)cc12` gave a solubility (kinetic) above 47.4 µg/mL.
In turn, `Cc1ccc(S(=O)(=O)N(CCO)Cc2ccccc2)cc1` showed a solubility (kinetic) above 45.8 µg/mL.
Under `O=C(NC(=S)Nc1cccc2cnccc12)c1ccccc1` stands 1.2 µg/mL (≈ 3.9 µM); under `CC(=O)c1cccc(NC(=S)NC2CCCCCCC2)c1`, 6 µg/mL (≈ 19.7 µM); under `COc1cc(OC)c(C(=O)Nc2cccnc2)cc1OC`, above 43.2 µg/mL.
Then `COc1ccc(/C=C/C(=O)Nc2ccncc2)cc1OC`, with 29.8 µg/mL (≈ 105 µM); and `COc1ccc(CC(=O)Nc2nc(C)cs2)cc1`, with 27.2 µg/mL (≈ 104 µM).
Then `Nc1ccc(-c2ccc(N)c([N+](=O)[O-])c2)cc1[N+](=O)[O-]`, with 0.2 µg/mL (≈ 0.729 µM).
For the compound `Cn1c(Cc2ccccc2)nnc1SCC(=O)NCCc1ccccc1`, the solubility (kinetic) is above 55 µg/mL.
The compound `O=S(=O)(c1cccc2nonc12)N1CCCCC1` showed a solubility (kinetic) above 40.1 µg/mL.
Compound `Cc1ccccc1-c1ccc(/C=C2/SC(N3CCOCC3)=NC2=O)o1` came in with a solubility (kinetic) of 1.4 µg/mL (≈ 3.95 µM).
The compound `O=C(Nc1cccc(-c2cn3cccnc3n2)c1)Nc1ccccc1F` showed a kinetic solubility of 1.7 µg/mL (≈ 4.89 µM).
Under `Cc1nc2ccc(Nc3ccncc3)cc2s1` stands 34.2 µg/mL (≈ 142 µM); under `CSCCC(NC(=O)c1ccco1)C(=O)NNC(=O)c1n[nH]c(=O)c2ccccc12` (stereo not given), above 64.4 µg/mL.
Turning to `O=C(O)Cc1c(-c2ccccc2)c2cc(Br)ccc2[nH]c1=O`, the solubility (kinetic) is 50.2 µg/mL (≈ 140 µM).
With `CCCc1cc(NCCCN(C)C)n2c(nc3ccccc32)c1C#N`, the solubility (kinetic) came out at 40.5 µg/mL (≈ 121 µM).
`O=[N+]([O-])c1c(NCCO)cc(N2CCCCC2)c2nonc12`: the solubility (kinetic) amounted to 38.6 µg/mL (≈ 126 µM).
Then `Cc1ccccc1C(=O)NC(=S)NCc1cccnc1`, with above 42.8 µg/mL; and `O=C(O)c1ccccc1N1C(=O)C2C3CCC(C3)C2C1=O` (stereo not given), with 39.5 µg/mL (≈ 138 µM).
Then `Cc1cccc(NC(=O)c2cc(Cl)nc3ccccc23)n1`, with 19.9 µg/mL (≈ 66.8 µM).
Compound `COCCCNC(=O)c1cn(C)c(=O)c2c1c1ccccc1n2C` registered a solubility (kinetic) of 19.8 µg/mL (≈ 60.5 µM).
`CCN(CC)c1ccc2c(Nc3ccccc3)c(C=O)c(=O)oc2c1` displayed a kinetic solubility below 0.4 µg/mL.
The compound `COc1ccc(-c2cc(-c3ccco3)[nH]c(=O)c2C#N)cc1` registered a solubility (kinetic) of 5.3 µg/mL (≈ 18.1 µM).
As to `COC(=O)C(C)NC(=O)COc1ccc2ccccc2c1` (stereo not given), the kinetic solubility was above 43.1 µg/mL.
Then `O=S(=O)(c1ccccc1F)N1CCCc2ccccc21`, with 11.2 µg/mL (≈ 38.4 µM); and `COc1cc2c(cc1OC)C(c1ccccc1OC(C)C)CC(=O)N2` (stereo not given), with below 0.7 µg/mL; and `O=C(COC(=O)COc1ccc(Cl)cc1Cl)NC1CCS(=O)(=O)C1` (stereo not given), with above 59.4 µg/mL.

The values above are taken from PubChem BioAssay AID1996.
